We go through 34 molecules from publication PMC8776092, “A Toxoplasma gondii Oxopurine Transporter Binds Nucleobases and Nucleosides Using Different Binding Modes” (International Journal of Molecular Sciences, 2022).

Where “and” joins values, the source holds several entries; their conditions need not be identical. Equal entries are not always repeated. Where two headings read alike, the source gives them in different places.

This experiment deals with T1, Tg244440 (Toxoplasma gondii, UniProt A0A125YNC9).
T1 sequence (A0A125YNC9 1-462): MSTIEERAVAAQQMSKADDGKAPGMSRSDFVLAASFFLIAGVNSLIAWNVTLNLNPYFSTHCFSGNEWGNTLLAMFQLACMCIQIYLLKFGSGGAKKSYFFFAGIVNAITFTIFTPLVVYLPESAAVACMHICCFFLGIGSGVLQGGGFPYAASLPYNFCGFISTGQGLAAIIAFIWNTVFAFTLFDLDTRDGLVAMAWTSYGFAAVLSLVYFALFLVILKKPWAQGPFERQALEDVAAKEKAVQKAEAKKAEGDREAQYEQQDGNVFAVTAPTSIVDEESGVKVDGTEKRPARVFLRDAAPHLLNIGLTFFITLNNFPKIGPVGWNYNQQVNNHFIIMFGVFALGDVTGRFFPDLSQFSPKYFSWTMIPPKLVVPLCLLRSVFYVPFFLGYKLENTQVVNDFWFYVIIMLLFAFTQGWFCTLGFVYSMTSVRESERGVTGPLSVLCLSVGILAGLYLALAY
The experiment is described as follows: [3H]-guanine uptake and its inhibition in T. brucei TbNB-KO procyclics expressing Tg244440 (clone F5). The note with it: for Ki: competition with 50 nM [3H]-guanine, Cheng-Prusoff; for ΔG^0 (Gibbs free energy of interaction): calculated from Km or Ki, ΔG0 = −RTln(Ki). The class given is cell-based. The method, then:
Briefly, PCF cells of T. brucei in logarithmic growth were harvested by centrifugation at 1000× g for 10 min, washed twice in AB and then resuspended in fresh buffer at a final density of 10^8 cells/mL. […] Immediately after finishing the assay, all tubes were flash-frozen in liquid nitrogen and the cell pellets were cut into scintillation vials and lysed with a solution of 2% SDS for one hour under agitation. Then, 3 mL of scintillation fluid (Scintilogic U, Lablogic) was added to each vial and left agitating overnight on a rocking platform. The next morning, the vials were vigorously shaken to ensure optimal mixing and the scintillation was measured in a 300SL (Hidex) scintillation counter. All assays were carried out in triplicate. All experimental data such as Km, Ki and Vmax values are the average and SEM of at least three separate experiments, each in triplicate, unless otherwise indicated.
Background scintillation was measured in vials containing no cells or radiolabeled substrate, and counts associated with extracellular radiolabel were calculated from samples where cells were briefly incubated with the same concentration of radiolabel, but in the presence of saturating concentrations of non-radiolabeled substrate before centrifugation through oil. The average of the three control replicates was subtracted from each data point.

For orientation: Ki means a measure of affinity in units of concentration, obtained from inhibition or displacement. For `OC[C@H]1O[C@@H](n2cc(Br)c3c(O)ncnc32)[C@H](O)[C@@H]1O` [7-deaza-7-Bromoinosine], the “Affinity for Tg244440 (in words)” value is “high affinity”, the “ΔG^0 (Gibbs free energy of interaction)” value is -6.98 kcal/mol and the “δ(ΔG^0) relative to Inosine” value was determined as 0.382 kcal/mol. For the same molecule, under “Ki, 30 s”, the Ki was 7.8 ± 1.2 µM.

As for `O=c1[nH]ccc2nc[nH]c12` [3-deazahypoxanthine], the “ΔG^0 (Gibbs free energy of interaction)” value was -5.76 kcal/mol and the “δ(ΔG^0) relative to Hypoxanthine” value stood at 1.94 kcal/mol. Also, the Ki (Ki, 30 s) turned out to be 59.5 ± 7.2 µM.

For `Nc1nc2c(ncn2[C@@H]2O[C@H](CO)C[C@H]2O)c(=O)[nH]1` [3′-deoxyguanosine], the “ΔG^0 (Gibbs free energy of interaction)” value was -5.07 kcal/mol; the “δ(ΔG^0) relative to Guanosine” value is 2.25 kcal/mol and 2.41 kcal/mol. Also, the inhibitory constant (Ki) (Ki, 30 s) amounted to 196 ± 12 µM.

On to `Nc1ncnc2c1ccn2[C@@H]1O[C@H](CO)C[C@H]1O` [3′-deoxy,7-deazaadenosine], for which the “ΔG^0 (Gibbs free energy of interaction)” value was -4.23 kcal/mol and the “δ(ΔG^0) relative to Adenosine” value came to 1.46 kcal/mol. Under “Ki, 30 s”, the affinity corresponds to a Ki of 797 ± 116 µM.

As for `OC[C@H]1O[C@@H](n2cnc3c(O)ccnc32)[C@H](O)[C@@H]1O` [1-deazainosine], the “δ(ΔG^0) relative to Inosine” value came to 2.89 kcal/mol. Besides, the inhibitory constant (Ki) (Ki, 30 s) worked out at 524 ± 53 µM.

For `OC[C@@H]1C[C@@H](O)[C@H](n2cnc3c(O)ncnc32)O1` [3′-deoxyinosine], the “ΔG^0 (Gibbs free energy of interaction)” value is -5.45 kcal/mol and the “δ(ΔG^0) relative to Inosine” value was 1.91 kcal/mol. Further, the inhibition constant (Ki) (Ki, 30 s) worked out at 102 ± 15 µM.

As for `Nc1nc(N)c2[nH]cnc2n1` [2,6-diaminopurine], the “ΔG^0 (Gibbs free energy of interaction)” value was -5.02 kcal/mol and the “δ(ΔG^0) relative to Adenine” value is -0.406 kcal/mol. Further, for the setting “Ki, 30 s”, the Ki came out at 211 ± 3.5 µM.

With `CCOc1ncnc2c1c(Cl)cn2[C@@H]1O[C@H](CO)[C@@H](O)[C@H]1O` [6-O-ethyl,7-deaza,7-Cl-inosine], the “ΔG^0 (Gibbs free energy of interaction)” value was -5.14 kcal/mol and the “δ(ΔG^0) relative to Inosine” value was 2.2 kcal/mol. Besides, the Ki (30 s, read-out: Ki) was found to be 169 ± 10 µM.

As for `OC[C@H]1O[C@@H](n2cnc3c(S)ncnc32)[C@H](O)[C@@H]1O` [6-thioinosine], the “ΔG^0 (Gibbs free energy of interaction)” value was -7 kcal/mol and the “δ(ΔG^0) relative to Inosine” value was determined as 0.335 kcal/mol. In addition, the Ki (Ki, 30 s) came to 7.3 ± 1.2 µM.

Turning to `Nc1ncnc2n[nH]cc12` [Aminopurinol], the “ΔG^0 (Gibbs free energy of interaction)” value was -4.97 kcal/mol and the “δ(ΔG^0) relative to Adenine” value was -0.382 kcal/mol. For the same molecule, the Ki (30 s, read-out: Ki) was 223 ± 27 µM.

Consider `Nc1ccnc2c1ncn2[C@@H]1O[C@H](CO)[C@@H](O)[C@H]1O` [1-deazaadenosine], for which the “ΔG^0 (Gibbs free energy of interaction)” value was -5.07 kcal/mol and the “δ(ΔG^0) relative to Adenosine” value came out at 0.621 kcal/mol. Also, where the note is “Ki, 30 s”, the inhibitory constant (Ki) was found to be 191 ± 10 µM.

`OC[C@H]1O[C@@H](n2cnc3cncnc32)[C@H](O)[C@@H]1O` [Nebularine, 9-(β-D-ribofuranosyl)purine]: the “ΔG^0 (Gibbs free energy of interaction)” value was -4.52 kcal/mol, the “δ(ΔG^0) relative to Adenosine” value came to 1.17 kcal/mol and the “δ(ΔG^0) relative to Inosine” value is 2.84 kcal/mol. Also, the affinity (Ki, 30 s) corresponds to a Ki of 491 ± 75 µM. In addition, for the setting “listed as nebularine”, the “ΔG^0 (Gibbs free energy of interaction)” value is 4.52 kcal/mol.

With `Nc1ncnc2c1ncn2[C@@H]1O[C@H](CO)C[C@H]1O` [3′-deoxyadenosine], the “ΔG^0 (Gibbs free energy of interaction)” value was -5.64 kcal/mol and the “δ(ΔG^0) relative to Adenosine” value worked out at 0.024 kcal/mol. The molecule also returned a Ki (Ki, 30 s) of 71.9 ± 2.3 µM.

Consider `C[C@H]1O[C@@H](n2cnc3c(O)ncnc32)[C@H](O)[C@@H]1O` [5′-deoxyinosine], for which the “ΔG^0 (Gibbs free energy of interaction)” value is -6.07 kcal/mol and the “δ(ΔG^0) relative to Inosine” value is 1.29 kcal/mol. This molecule yielded a Ki (Ki, 30 s) of 35.3 ± 3 µM.

As to `O=c1[nH]cnc2c1CC=N2` [7-deazahypoxanthine], the “ΔG^0 (Gibbs free energy of interaction)” value was -4.78 kcal/mol and the “δ(ΔG^0) relative to Hypoxanthine” value was determined as 2.94 kcal/mol. Under “Ki, 30 s”, this molecule gave a Ki of 318 ± 30 µM.

Regarding `O=c1[nH]cnc2[nH]nc(Br)c12` [7-Br-allopurinol], the “ΔG^0 (Gibbs free energy of interaction)” value is -5.71 kcal/mol. Moreover, the inhibition constant (Ki) (30 s, read-out: Ki) was found to be 65.7 ± 3.7 µM.

One may read the inhibition as the relative decrease from the control value, in per cent. `O=c1[nH]cnc2nn[nH]c12` [8-azahypoxanthine]: the “δ(ΔG^0) relative to Hypoxanthine” value was >3.61 kcal/mol. Further, the Ki (Ki, 30 s) is > 1000 µM. Moreover, the inhibition at 1000 µM (read-out: Inhibition of the transport of 50 nM [3H]-guanine) is < 50%.

As to `Nc1ncnc2c1ncn2[C@H]1C[C@H](O)[C@@H](CO)O1` [2′-deoxyadenosine], the “ΔG^0 (Gibbs free energy of interaction)” value was -5.57 kcal/mol and the “δ(ΔG^0) relative to Adenosine” value stood at 0.12 kcal/mol. Also, the affinity (Ki, 30 s), expressed as Ki, was 83.9 ± 6.2 µM.

Regarding `Nc1nccc2c1ncn2[C@@H]1O[C@H](CO)[C@@H](O)[C@H]1O` [3-deazaadenosine], the “ΔG^0 (Gibbs free energy of interaction)” value is -3.97 kcal/mol and the “δ(ΔG^0) relative to Adenosine” value came to 1.72 kcal/mol. The molecule further registered an inhibition constant Ki (Ki, 30 s) of 1220 ± 140 µM.

As for `Nc1nc2c(ncn2[C@H]2C[C@H](O)[C@@H](CO)O2)c(=O)[nH]1` [2′-deoxyguanosine], the “ΔG^0 (Gibbs free energy of interaction)” value is -4.85 kcal/mol and the “δ(ΔG^0) relative to Guanosine” value was determined as 2.63 kcal/mol. The same molecule had a Ki (Ki, 30 s) of 281 ± 6 µM. For the same molecule, the “δ(ΔG^0) relative to Guanosine” value (listed as 2′-Deoxyguanosine) was determined as 2.63 kcal/mol.

For the molecule `Clc1ncnc2nc[nH]c12` [6-Chloropurine], the “ΔG^0 (Gibbs free energy of interaction)” value was -5.4 kcal/mol and the “δ(ΔG^0) relative to Hypoxanthine” value was 2.29 kcal/mol. Where the note is “Ki, 30 s”, the affinity corresponds to a Ki of 109 ± 8 µM.

In the case of `Sc1ncnc2nc[nH]c12` [6-Mercaptopurine], the “ΔG^0 (Gibbs free energy of interaction)” value was -7.43 kcal/mol and the “δ(ΔG^0) relative to Hypoxanthine” value came to 0.287 kcal/mol. Under “Ki, 30 s”, the affinity corresponds to a Ki of 3.6 ± 0.8 µM.

With `Cc1c[nH]c(=O)[nH]c1=O` [thymine], the “Inhibition of [3H]-guanine transport by pyrimidines” value (inhibitor at 1 mM, 0.1 μM [3H]-guanine, 30 s) was “significant inhibition”.

For `Nc1nc2c(c(=O)[nH]1)CC=N2` [7-deazaguanine], the “ΔG^0 (Gibbs free energy of interaction)” value was -5.88 kcal/mol and the “δ(ΔG^0) relative to Guanine” value is 2.17 kcal/mol. Also, the Ki (Ki, 30 s) is 49.2 ± 5.8 µM.

Turning to `O=C1CC=Nc2nc[nH]c21` [1-deazahypoxanthine], the “ΔG^0 (Gibbs free energy of interaction)” value is -5.07 kcal/mol and the “δ(ΔG^0) relative to Hypoxanthine” value turned out to be 2.63 kcal/mol. For the setting “Ki, 30 s”, this molecule yielded an inhibition constant (Ki) of 194 ± 43 µM.

On to `Nc1nc2nc[nH]c2c(=S)[nH]1` [6-Thioguanine], for which the “ΔG^0 (Gibbs free energy of interaction)” value is -7.89 kcal/mol and the “δ(ΔG^0) relative to Guanine” value was determined as 0.17 kcal/mol. The same molecule came in with a Ki (Ki, 30 s) of 1.64 ± 0.25 µM.

Regarding `O=c1[nH]cnc2cc[nH]c12` [9-deazahypoxanthine], the “ΔG^0 (Gibbs free energy of interaction)” value was -6.88 kcal/mol and the “δ(ΔG^0) relative to Hypoxanthine” value is 0.837 kcal/mol. For the same molecule, where the note is “Ki, 30 s”, the inhibition constant Ki is 9.12 ± 0.66 µM.

`Nc1nc2cc[nH]c2c(=O)[nH]1` [9-deazaguanine]: the “ΔG^0 (Gibbs free energy of interaction)” value was -6.84 kcal/mol and the “δ(ΔG^0) relative to Guanine” value was 1.22 kcal/mol. The same molecule had an inhibition constant Ki (Ki, 30 s) of 9.64 ± 1.59 µM.

In the case of `Nc1ncnc2[nH]cnc12` [Adenine], the “Affinity for Tg244440 (in words)” value is “Low affinity”, the “ΔG^0 (Gibbs free energy of interaction)” value was -4.59 kcal/mol and the “δ(ΔG^0) relative to Hypoxanthine” value worked out at 3.11 kcal/mol. The molecule further came in with a Ki (Ki, 30 s) of 425 ± 80 µM.

In the case of `OC[C@H]1O[C@@H](n2ccc3c(O)ncnc32)[C@H](O)[C@@H]1O` [7-deazainosine], the “ΔG^0 (Gibbs free energy of interaction)” value is -7.1 kcal/mol and the “δ(ΔG^0) relative to Inosine” value came to 0.263 kcal/mol. For the same molecule, the Ki (Ki, 30 s) is 6.32 ± 0.32 µM.

`C[C@H]1O[C@@H](n2cnc3c(N)ncnc32)[C@H](O)[C@@H]1O` [5′-deoxyadenosine]: the “ΔG^0 (Gibbs free energy of interaction)” value is -5.54 kcal/mol and the “δ(ΔG^0) relative to Adenosine” value came to 0.14 kcal/mol. In addition, the affinity (Ki, 30 s), expressed as Ki, was 85.2 ± 4.2 µM.

Regarding `OC[C@H]1O[C@@H](n2cnc3c(O)ncnc32)C[C@@H]1O` [2′-deoxyinosine], the “ΔG^0 (Gibbs free energy of interaction)” value was -5.35 kcal/mol and the “δ(ΔG^0) relative to Inosine” value turned out to be 1.98 kcal/mol. Also, the inhibitory constant (Ki) (Ki, 30 s) is 117 ± 12 µM.

As to `OC[C@@H]1C[C@@H](O)[C@H](n2ccc3c(O)ncnc32)O1` [7-deaza-3′-deoxyinosine], the “ΔG^0 (Gibbs free energy of interaction)” value was -5.66 kcal/mol. Moreover, the Ki (Ki, 30 s) was 70.8 ± 11.2 µM. For the same molecule, under “relative to 3′-Deoxyinosine”, the “δ(ΔG^0) relative to 3′-Deoxyinosine” value is -0.22 kcal/mol.

In the case of `OC[C@H]1O[C@@H](n2cc(Cl)c3c(O)ncnc32)[C@H](O)[C@@H]1O` [7-deaza-7-Chloroinosine], the “Affinity for Tg244440 (in words)” value was “high affinity”, the “ΔG^0 (Gibbs free energy of interaction)” value was -6.88 kcal/mol and the “δ(ΔG^0) relative to Inosine” value stood at 0.454 kcal/mol. The molecule further showed an inhibition constant (Ki) (Ki, 30 s) of 8.9 ± 1.3 µM.
